From patent US20240124504A1, “AROMATIC HETEROCYCLIC COMPOUND, AND PHARMACEUTICAL COMPOSITION AND APPLICATION THEREOF” (GT APEIRON THERAPEUTICS LIMITED, priority 2020, published 2024) come the findings set out here.

The target of data set [1] is CDK9/cyclinT1 complex (Homo sapiens, UniProt P50750). Briefly: In-vitro enzymatic inhibitory activity testing, CDK9 inhibition assay (Caliper EZ Reader II). Type of data set: biochemical. Conditions: CDK9/cyclinT1 8 nM, 180 min at 27° C. The gist of the method:
(§1)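 Enzyme preincubated 10 min with compound, then peptide substrate plus ATP added in 80 mM MES pH 6.5, 10 mM MgCl2 buffer; 180 min at 27 °C, stopped with EDTA.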

Data set [2] concerns human breast cancer cells HCC70. Put plainly: Cell biological activity detection (CyQuant, 72 hours), HCC70. The data set is classed as cell-based. Conditions: Homo sapiens, HCC70, 72 h, incubation for 72 hours. An outline of the steps:
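A2780 and HCC70 cells seeded at 2000/well in RPMI 1640 + 10% FBS, treated next day with 9-point compound dilutions (top 10 μM, 1:4; 0.2% DMSO) for 72 h at 37 °C. Cell number read by CyQuant Direct nucleic acid stain (ex 488 nm); IC50 from dose–response fit.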

In data set [3] the target is CDK7/cyclinH/MAT1 complex (Homo sapiens, UniProt P50613). Put plainly: In-vitro enzymatic inhibitory activity testing, CDK7 inhibition assay (Caliper EZ Reader II). Type of data set: biochemical. The conditions noted are these: CDK7/cyclinH/MAT1 6 nM, 180 min at 27° C. An outline of the steps:
as §1

Data set [4] in a line: Caco-2 membrane permeability and efflux rate. Type of data set: in vitro ADME. Conditions: human, Caco-2, Caco-2, 5 μM; for Papp B→A at 2 h, 5 μM: basal end to top end; for efflux ratio at 2 h, 5 μM: read-out: ER (efflux rate); for Papp A→B at 2 h, 5 μM: top end to basal end. The procedure: The recovered Caco-2 cell suspension was seeded into a […] plate and cultured for 14-18 days. After being cultured for 14 days, the cells were fused and differentiated to be ready for a transport experiment. The Caco-2 cell plate was taken out from the incubator. Stock solutions of a to-be-tested compound and a control compound were formulated with DMSO and diluted with an HBSS (10 mM HEPES, pH 7.4) buffer to a final concentration of 5 μM. A test compound solution and a control drug solution were added to each well (top end) of an insert culture plate, and the HBSS (10 mM HEPES, pH 7.4) buffer was added to each well of a test compound receiving plate (basal end). When measuring the transport rate of the compound from the basal end to the top end, the test compound solution and the control drug solution were added to each well of the receiving plate (basal end), the HBSS (10 mM HEPES, pH 7.4) buffer solution was added to each well (top end) of the insert culture plate for the test compound solution, and incubation was carried out for 2 hours in a CO2 incubator at 37° C. After the transport experiment was completed, vortexing was carried out for 10 minutes at 1000 rpm. After sample quenching at each time point, LC/MS/MS analysis was carried out. A fluorescence value was measured after a two-hour transport experiment, a lucifer yellow solution was added in a transwell chamber (top end), a transport buffer solution was added in the basal end, and incubation was carried out for 30 minutes in the CO2 incubator at 37° C. The solution was taken out directly from the top end and the basal end (using basolateral wells) and transferred to a new 96-well plate. A cell fluorescence value was measured by a microplate reader (to detect membrane integrity), an excitation wavelength was […], and an emission wavelength was […]. All data were calculated by using Microsoft Excel, and a peak area was calculated according to chromatograms. An apparent permeability coefficient (Papp, unit: 10-6, cm/s) and an efflux rate (ER) of the compounds in Caco-2 cells were calculated by the specific concentrations of a receiving end and an administering end.

The structures appear in SMILES notation.

Chain of CDK9/cyclinT1 complex (P50750 whole entry, species assumed): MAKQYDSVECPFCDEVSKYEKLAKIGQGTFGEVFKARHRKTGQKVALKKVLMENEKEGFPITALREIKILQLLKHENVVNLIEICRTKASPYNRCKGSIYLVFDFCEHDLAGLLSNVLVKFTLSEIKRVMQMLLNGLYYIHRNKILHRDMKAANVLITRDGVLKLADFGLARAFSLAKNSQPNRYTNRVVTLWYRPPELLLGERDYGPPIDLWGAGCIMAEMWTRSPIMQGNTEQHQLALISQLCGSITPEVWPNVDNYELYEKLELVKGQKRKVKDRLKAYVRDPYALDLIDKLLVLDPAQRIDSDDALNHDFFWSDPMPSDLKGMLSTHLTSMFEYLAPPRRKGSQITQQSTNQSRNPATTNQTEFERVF
Chain of CDK9/cyclinT1 complex (O60563 whole entry partner, species assumed): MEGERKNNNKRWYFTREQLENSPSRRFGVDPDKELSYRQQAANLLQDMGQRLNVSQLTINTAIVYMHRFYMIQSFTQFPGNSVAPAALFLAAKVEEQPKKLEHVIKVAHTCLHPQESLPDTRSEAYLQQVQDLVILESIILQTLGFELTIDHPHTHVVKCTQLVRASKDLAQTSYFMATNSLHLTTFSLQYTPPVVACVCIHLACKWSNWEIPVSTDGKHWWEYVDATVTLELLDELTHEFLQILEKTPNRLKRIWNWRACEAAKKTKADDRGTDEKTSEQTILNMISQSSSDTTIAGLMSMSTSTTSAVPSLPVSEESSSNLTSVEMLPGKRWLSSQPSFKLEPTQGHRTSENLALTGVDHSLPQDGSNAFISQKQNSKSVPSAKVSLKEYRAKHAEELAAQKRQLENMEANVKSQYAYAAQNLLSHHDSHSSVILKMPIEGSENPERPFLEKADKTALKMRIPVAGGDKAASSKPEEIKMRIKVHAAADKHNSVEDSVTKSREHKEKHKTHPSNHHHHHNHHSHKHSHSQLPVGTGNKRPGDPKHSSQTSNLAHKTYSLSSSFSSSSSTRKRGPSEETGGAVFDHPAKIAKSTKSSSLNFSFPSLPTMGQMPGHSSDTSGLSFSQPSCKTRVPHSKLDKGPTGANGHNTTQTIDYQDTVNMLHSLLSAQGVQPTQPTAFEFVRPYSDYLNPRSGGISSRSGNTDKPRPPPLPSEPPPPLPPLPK
Chain of CDK7/cyclinH/MAT1 complex (P50613 whole entry, species assumed): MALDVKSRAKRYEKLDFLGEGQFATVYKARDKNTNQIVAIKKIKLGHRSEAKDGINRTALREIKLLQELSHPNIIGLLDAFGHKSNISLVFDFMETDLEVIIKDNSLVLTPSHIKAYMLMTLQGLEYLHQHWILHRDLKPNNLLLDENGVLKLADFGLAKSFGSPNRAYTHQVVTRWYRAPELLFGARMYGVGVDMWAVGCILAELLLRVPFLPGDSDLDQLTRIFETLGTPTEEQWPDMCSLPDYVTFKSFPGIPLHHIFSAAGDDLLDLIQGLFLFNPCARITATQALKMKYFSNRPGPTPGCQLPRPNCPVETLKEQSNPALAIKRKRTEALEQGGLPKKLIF
Chain of CDK7/cyclinH/MAT1 complex (P51946 whole entry partner, species assumed): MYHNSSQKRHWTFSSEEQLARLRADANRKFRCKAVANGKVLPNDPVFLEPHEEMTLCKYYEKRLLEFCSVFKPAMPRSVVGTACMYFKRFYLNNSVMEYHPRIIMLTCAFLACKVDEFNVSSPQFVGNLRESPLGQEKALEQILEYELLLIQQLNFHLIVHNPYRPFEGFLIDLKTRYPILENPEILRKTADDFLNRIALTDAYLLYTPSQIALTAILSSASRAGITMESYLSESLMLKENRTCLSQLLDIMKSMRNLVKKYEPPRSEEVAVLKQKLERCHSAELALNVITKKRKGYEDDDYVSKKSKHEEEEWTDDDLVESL
Chain of CDK7/cyclinH/MAT1 complex (P51948 whole entry partner, species assumed): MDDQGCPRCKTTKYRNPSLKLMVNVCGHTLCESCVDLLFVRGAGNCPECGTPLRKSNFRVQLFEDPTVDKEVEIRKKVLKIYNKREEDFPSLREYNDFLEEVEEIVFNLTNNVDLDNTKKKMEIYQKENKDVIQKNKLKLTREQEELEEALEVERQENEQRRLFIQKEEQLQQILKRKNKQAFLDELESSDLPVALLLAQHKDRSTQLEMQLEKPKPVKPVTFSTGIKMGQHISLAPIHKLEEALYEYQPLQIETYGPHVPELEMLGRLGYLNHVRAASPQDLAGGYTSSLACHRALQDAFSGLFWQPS

As for `CC(CO)CNc1ncc(C(F)(F)F)c(-c2c[nH]c3c(P(C)(C)=O)cccc23)n1` (single isomer, unassigned) [Compound 149], the figures for the IC50 in data set [1], in data set [2] and in data set [3] were above 50000 nM, below 20 nM and below 20 nM, respectively. The basolateral-to-apical permeability (Papp B→A) – broadly, how fast a substance crosses the layer from the basolateral side – at 2 h, 5 μM in data set [4] turned out to be 32.8 ×10⁻⁶ cm/s. In data set [4], the efflux ratio at 2 h, 5 μM was 7.8. Moreover, the Papp A→B (in general, how fast a substance crosses the layer from the apical side) at 2 h, 5 μM in data set [4] came to 4.2 ×10⁻⁶ cm/s.
For the compound `C[C@@H](CO)Nc1ncc(C(F)(F)F)c(-c2c[nH]c3c(P(C)(C)=O)cccc23)n1` [Compound 82, (S)-(3-(2-((1-hydroxypropyl-2-yl)amino)-5-(trifluoromethyl)pyrimidin-4-yl)-1H-indole-7-yl)dimethylphosphine oxide], the values for the IC50 in data set [1], in data set [2] and in data set [3] were above 50000 nM, below 20 nM and below 20 nM, respectively. The Papp B→A at 2 h, 5 μM in data set [4] was found to be 23.6 ×10⁻⁶ cm/s. Besides, the efflux ratio at 2 h, 5 μM in data set [4] stood at 3.95. For the same compound, the Papp A→B at 2 h, 5 μM in data set [4] was 5.32 ×10⁻⁶ cm/s.
Regarding `C[C@H](CO)Nc1ncc(C(F)(F)F)c(-c2c[nH]c3c(P(C)(C)=O)cccc23)n1` [Compound 93, (R)-(3-(2-((1-hydroxypropyl-2-yl)amino)-5-(trifluoromethyl)pyrimidin-4-yl)-1H-indole-7-yl)dimethylphosphine oxide], the concentration for half-maximal inhibition (IC50) (as a rule, the concentration needed to halve the response being measured) in data set [1] is above 50000 nM; in data set [2], below 20 nM; in data set [3], below 20 nM. Besides, the Papp B→A at 2 h, 5 μM in data set [4] came out at 27 ×10⁻⁶ cm/s. For the same compound, the efflux ratio at 2 h, 5 μM in data set [4] worked out at 7.64. Also, the Papp A→B at 2 h, 5 μM in data set [4] was 3.53 ×10⁻⁶ cm/s.
For `CP(C)(=O)c1cccc2c(-c3nc(N[C@H]4COC[C@@H]4O)ncc3C(F)(F)F)c[nH]c12` [Compound 87], in data set [1], the IC50 was above 50000 nM. The IC50 in data set [2] was below 20 nM. Moreover, in data set [3], the IC50 was below 20 nM. In data set [4], the Papp B→A at 2 h, 5 μM was 25.1 ×10⁻⁶ cm/s; the efflux ratio at 2 h, 5 μM came out at 37.1; the Papp A→B at 2 h, 5 μM stood at 0.68 ×10⁻⁶ cm/s.
The compound `CP(C)(=O)c1cccc2c(-c3nc(NCCCO)ncc3C(F)(F)F)c[nH]c12` [Compound 89, (3-(2-((3-hydroxypropyl)amino)-5-(trifluoromethyl)pyrimidin-4-yl)-1H-indole-7-yl)dimethylphosphine oxide] yielded an IC50 in data set [1] above 50000 nM. The compound also showed an IC50 in data set [2] below 20 nM. In addition, in data set [3], the IC50 was below 20 nM. In addition, in data set [4], the basolateral-to-apical permeability (Papp B→A) at 2 h, 5 μM turned out to be 30.6 ×10⁻⁶ cm/s; the efflux ratio at 2 h, 5 μM amounted to 14.3; the Papp A→B at 2 h, 5 μM amounted to 2.13 ×10⁻⁶ cm/s.
With `CP(C)(=O)c1cccc2c(-c3nc(NC4(CO)CC4)ncc3C(F)(F)F)c[nH]c12` [Compound 94, (3-(2-((1-(hydroxymethyl)cyclopropyl)amino)-5-(trifluoromethyl)pyrimidin-4-yl)-1H-indole-7-yl)dimethylphosphine oxide], in data set [1], the IC50 is above 50000 nM. The compound also returned an IC50 in data set [2] of 20 to 200 nM. This compound also displayed an IC50 in data set [3] of 20 to 200 nM. In data set [4], the Papp B→A at 2 h, 5 μM worked out at 31.4 ×10⁻⁶ cm/s; the efflux ratio at 2 h, 5 μM stood at 12.5; the Papp A→B at 2 h, 5 μM turned out to be 2.51 ×10⁻⁶ cm/s.
`C[C@@H](CO)Nc1ncc(C(F)(F)F)c(-c2c[nH]c3c(P(C)(C)=O)c(F)ccc23)n1` [Compound 195] showed an IC50 in data set [1] above 50000 nM. In data set [2], the IC50 was below 20 nM. Moreover, the IC50 in data set [3] is below 20 nM. In data set [4], the Papp B→A at 2 h, 5 μM turned out to be 24.4 ×10⁻⁶ cm/s; the efflux ratio at 2 h, 5 μM was 2.36; the Papp A→B at 2 h, 5 μM is 10.3 ×10⁻⁶ cm/s.
Compound `CP(C)(=O)c1cccc2c(-c3nc(NCC4CC(O)C4)ncc3C(F)(F)F)c[nH]c12` (stereo not drawn) [Compound 126, (3-(2-(((3-hydroxycyclobutyl)methyl)amino)-5-(trifluoromethyl)pyrimidin-4-yl)-1H-indole-7-yl)dimethylphosphine oxide] yielded an IC50 in data set [1] above 50000 nM. Besides, in data set [2], the IC50 is 20 to 200 nM. The same compound yielded an IC50 in data set [3] below 20 nM. Besides, in data set [4], the Papp B→A at 2 h, 5 μM stood at 24.6 ×10⁻⁶ cm/s; the efflux ratio at 2 h, 5 μM worked out at 7.41; the Papp A→B at 2 h, 5 μM came to 3.32 ×10⁻⁶ cm/s.
